Measurements published in PMC11483813, “Bombesin-Targeted Delivery of β-Carboline-Based Ir(III) and Ru(II) Photosensitizers for a Selective Photodynamic Therapy of Prostate Cancer” (Inorganic Chemistry, 2024).
Residues, ends and D or L forms follow the SMILES beside them. *: point of attachment. X1 = Cn1c2ccccc2c2ccnc(-c3ccc(/C=C/C(=O)*)cn3)c21

Legend:
PC-3 cells = assay: Clonogenic assay; type: cell-based, human; conditions: 5 μM, blue light irradiation, 10 days, versus control cells
Protocol: The effect of the metallopeptides Ir-BN and Ru-BN as well as of the complexes Ir-H and Ru-H on the viability of PC-3 cells was next investigated through clonogenic assays, which determine the fraction of cells that survive treatment and retain the ability to generate new colonies.[56] This is a crucial feature of metastatic cancer cells, which need to proliferate in distant tissues to create secondary tumors. For this purpose, PC-3 cells were treated with the compounds at an equimolar concentration of 5 μM with or without photoactivation with blue light. Ten days later, the number of cells that survived and were able to grow and form colonies was assessed in comparison to control cells. Cells treated with cisplatin were used as a positive control.
Figure 8 Clonogenic assay. PC-3 cells were treated with the indicated compounds at 5 μM in the dark and with blue light irradiation. Control cells were treated with the medium alone. Cisplatin was used as a positive control. Cells were incubated for 10 days to allow colony formation. (A) Images of the colonies. (B) Bar charts representing the percentage of colonies versus control cells after each treatment (mean ± SD of 3 experiments). ** p < 0.01; *** p < 0.001 versus control cells.
PC-3 cells were seeded at a density of 100000 cells per well in 12-well plates and allowed to adhere for 24 h. The cells were treated with the compounds […] for 4 h and subsequently irradiated with blue light or kept in the dark for one hour. The treatments were then removed, and the cells were washed with PBS, harvested by trypsinization, and counted using a Novocyte flow cytometer (Agilent Technologies). Subsequently, 3000 cells were seeded in 5 cm culture dishes and incubated for 10 days to allow colonies to form. A colony was defined to consist of at least 50 cells. Cells treated with cisplatin (5 μM) were used as a positive control, and cells treated with the culture medium alone were used as a negative control. […] Each compound was evaluated in triplicate.

[1] = n-octanol/PBS partition coefficient, shake flask; type: physicochemical; conditions: UV/vis
Protocol: First, the n-octanol/PBS partition coefficient values, log Poct/PBS, of the metal PSs were experimentally determined to quantify their lipophilicity (Figure S56). Indeed, the shake flask method was employed, and the metal content was measured in both phases by UV/vis spectroscopy. […]
an integrating sphere. For the determination of the luminescence lifetime, the fluorescence decay was measured on a FLS980 spectrofluorometer equipped with a TSCPC laser (Ir(III) complexes: λ ex = 405 nm; Ru(II) complexes: λ ex = 450 nm) and a REDPMT detector. The F980 spectrometer operating software was used to collect and process luminescence lifetime data.
Photostability of Ir(III) and Ru(II) complexes. The photostability of Ir(III) or Ru(II) complexes was monitored by 1H RMN. The 1.5 × 10−2 M solutions of the complexes in DMSO-d6:D2O (3:2) at 25 °C were irradiated with blue LED light (λ irr = 460 nm, 24 W) for different intervals of time. […]
Singlet oxygen generation. The capacity of Ir-Me and Ru-Me to generate singlet oxygen ( 1O2) was determined by an indirect method using 9,10-anthracenediyl-bis(methylene) dimalonic acid (ABDA) as a probe. The reaction between ABDA and 1O2 was monitored by UV-Vis and the gradual decrease of the maximum at 379 nm was used to quantify the ability of our complexes to generate 1O2. Aerated solutions of ABDA (8 × 10^-5 M) and the corresponding PS in H2O:DMSO (50:50) were irradiated with a blue LED strip (λ ir = 460 nm; 24 W) at room temperature for intervals of 5 minutes (0 min → 100 min) and UV-Vis spectra were recorded after every irradiation interval. Concentrations of PS were tuned to achieve similar values of absorbance at 460 nm (A460 nm ≈ 0.06). The singlet oxygen quantum yield (φ) was determined using Rose Bengal (RB) as standard reference (φ Δ = 0.75)6 and the following equation:7 […]
where kPS and kRB represent the decomposition rate constants of the photobleaching of ABDA determined by the slope calculated from the linear fit of ln(A 0/A) vs time. […]
Determination of Lipophilicity. […] The log P oct/PBS values were determined as follows: […]

log Poct/PBS [1]	SMILES	decrease in number of colonies (PC-3 cells)
1.80	Cn1c2ccccc2c2ccnc(-c3ccc(/C=C/C(=O)O)cn3)c21.[Cl-].[Ir+3].[c-]1ccccc1-c1ccccn1.[c-]1ccccc1-c1ccccn1 [Ir-H]	27.3%
−1.10	Cn1c2ccccc2c2ccnc(-c3ccc(/C=C/C(=O)O)cn3)c21.[Cl-].[Cl-].[Ru+2].c1ccc(-c2ccccn2)nc1.c1ccc(-c2ccccn2)nc1 [Ru-H]	No effect
	CC(C)C[C@H](NC(=O)[C@H](CC(C)C)NC(=O)[C@H](Cc1c[nH]cn1)NC(=O)CNC(=O)[C@@H](NC(=O)[C@H](C)NC(=O)[C@H](Cc1c[nH]c2ccccc12)NC(=O)[C@H](CCC(N)=O)NC(=O)[C@H](CC(N)=O)NC(=O)CNC(=O)[C@H](CC(C)C)NC(=O)[C@H](CCCNC(=N)N)NC(=O)[C@H](CCC(N)=O)NC(=O)/C=C/c1ccc(-c2nccc3c4ccccc4n(C)c23)nc1)C(C)C)C(N)=O [Ir-BN] (X1-QRLGNQWAVGHLL-NH2)	34.7%
2.03	COC(=O)/C=C/c1ccc(-c2nccc3c4ccccc4n(C)c23)nc1.[Cl-].[Ir+3].[c-]1ccccc1-c1ccccn1.[c-]1ccccc1-c1ccccn1 [Ir-Me]	
